Assay [1] has as its system ethylene receptors. In words: Banana ripening protection from ethylene. In kind it is in vivo. The note with it: 24 hours of exposure in 3-liter jar, then 333 microliters per liter of ethylene for 12-15 hours; banana peels. The procedure: Compounds which block the ethylene receptors can prevent bananas from ripening. Treatment of bananas with 30 nl/l of Compound 1 protected banana peels from the effects of ethylene. The bananas were treated using the following general procedure:
An ether solution of a known amount of the active compound was placed on filter paper in a 3-liter jar. The amount of ether used was without effect when applied alone on a banana contained in a 3-liter jar. The jar was sealed and the banana was removed after 24 hours of exposure. The banana was then treated with 333 microliters per liter of ethylene in a 3-liter jar for 12-15 hours. It was then observed for ripening. The minimum concentration that protected the banana was determined.

The test system of assay [2] is Patio variety tomato seedlings. In words: Tomato Epinasty Test, volatile gas treatment. The following applies: applied as a gas at 1000 ppm; ethylene 10 ppm v/v after four hours, scored sixteen hours later. In kind it is in vivo. The procedure: Objective: The test procedure is designed to determine the ability of an experimental compound to block the epinastic growth response induced by ethylene in tomato plants when the experimental compound is administered either as a volatile gas or as a component of a spray solution. Treatment chambers are of an appropriate size for the test plants and are airtight. Each is fitted with a reusable septum to be used for injection of ethylene. Test plants are Patio variety tomato seedlings planted two plants per three inch square plastic pot. Volatile gas treatment entails placing two pots of Patio var. tomatoes into a polystyrene 4.8L volume treatment chamber along with one-half (upper or lower section) of a 50×9 mm plastic Petri dish containing a Gelman filter pad. The appropriate amount of experimental compound, dissolved in 1.0 ml acetone, is pipetted onto the filter pad and the chamber immediately sealed. Four hours later ethylene gas equal to 10 ppm v/v final concentration is injected into the sealed chamber. Sixteen hours later the chambers are opened in an exhaust hood, allowed to air and the plants scored visually for the degree of protection against ethylene-induced epinasty conferred by the experimental compound when compared to ethylene treated and untreated controls on a scale of 0 to 10. A rating of 10 means complete protection. […]

`OCC1=CC1` [Compound 1, 1-Hydroxymethylcyclopropene]: the “minimum concentration that protected the banana” value in assay [1] amounted to 30 nl/l.

With `OCCC1=CC1` [Compound 2, 1-(2-Hydroxyethyl)-cyclopropene], the “rating of protection against ethylene-induced epinasty (scale of 0 to 10; 10 means complete protection)” value in assay [2] was found to be 10.

Source of the values: US20040072694A1, “Method to inhibit ethylene responses in plants” (priority 2002, published 2004).
